pIC50: −log10 of the molar value.
What was measured:
[1] = molecular target: T1, cytoplasmic dynein purified from bovine brain (Bos taurus, UniProt A0A3Q1NEU9); experiment: Microtubule surface gliding assay, dynein; assay type: biochemical; conditions: for dynein-dependent microtubule movement (gliding velocity): 100 μM; for pIC50: dynein-dependent microtubule gliding in vitro, read-out: IC50 of microtubule gliding inhibition
T1 construct: Cytoplasmic dynein was purified from bovine brain tissue; from tissue; host or cells: bovine brain
Description: To more directly examine whether cytoplasmic dynein is the direct target of the ciliobrevins, we evaluated their effects on dynein-dependent microtubule gliding in vitro. Cytoplasmic dynein was purified from bovine brain tissue, adsorbed onto glass slides, and then incubated with fluorescently labeled microtubules and ATP in the presence or absence of these compounds. We then imaged and quantified the resulting microtubule gliding velocities by epifluorescence microscopy.
Cytoplasmic dynein was purified from bovine brains as described by Bingham et al. [Methods Enzymol. 298, 171 (1998)]. K560, a 560-amino acid N-terminal fragment of human conventional kinesin (kinesin-1) with a C-terminal His-tag, was expressed in bacteria and purified as described by Woehlke et al., [Cell 90, 207 (1997)]. Motility assays were performed on a Zeiss Axiovert 200M wide-field microscope equipped with a Zeiss 100×/1.45 NA α-Plan-Fluar objective. Data were captured with an EM-CCD camera (iXon DU-897, Andor Technology) with a 0.3-second exposure time and frame rate of 0.5 second^−1. Microtubule gliding assays were performed as described by Kapoor and Mitchison [Proc. Natl. Acad. Sci. U.S.A. 96, 9106 (1999)] with some modifications. An approximately 6 μL flow chamber was filled with motor protein (100 μg/mL dynein or 50 μg/mL K560) in motor dilution buffer (80 mM Pipes, 1 mM EGTA, 2 mM MgCl2, 2 mM DTT, 50 μM ATP, pH 6.8 with KOH). After a 2-minute incubation, excess protein was washed out with […] of PEM80 buffer (80 mM Pipes, 1 mM EGTA, 2 mM MgCl2, pH 6.8 with KOH) and the surface was blocked against non-specific microtubule binding by filling the chamber with blocking protein (0.5 mg/mL α-casein for dynein experiments and 1 mg/mL BSA for K560 experiments) in motor dilution buffer. After 2 minutes the chamber was perfused with 18 μL of reaction mix (PEM80, 40 mM KCl, blocking protein [1 mg/mL a-casein for dynein experiments; 1 mg/mL BSA for K560 experiments], 2 mM MgATP, 20 μM taxol, 0.1 μM rhodamine-labeled microtubules, oxygen depletion system [4 mM DTT, 2 mM glucose, 40 μg/mL glucose oxidase, 35 μg/mL catalase], 2.5% DMSO, and test compounds as appropriate). The flow chamber was then sealed with valap. After allowing the microtubules to bind to the surface for 5 minutes, the gliding microtubules were visualized by time-lapse fluorescence microscopy. Velocities were measured by kymography using Metamorph software (Molecular Devices), and the velocity for each microtubule was determined from the total distance during the time observed.
For washout experiments, the chamber was left unsealed after the initial reaction mix containing inhibitor was added. Microtubules were allowed to bind to the surface for 5 minutes, and then a time-lapse movie was acquired. The inhibitor was then washed out of the chamber by flowing in 20 μL of fresh reaction mix (PEM80, 40 mM KCl, 1 mg/mL α-casein, 2 mM MgATP, 20 μM taxol, oxygen depletion system, and 2.5% DMSO) without additional microtubules or inhibitor. The chamber was sealed, and additional time-lapse movies were acquired.

[2] = system: ciliary Gli2 in Shh-EGFP cells; experiment: Quantitative assessment of Hh ligand-dependent Gli2 trafficking; assay type: cell-based; conditions: 30 μM, 4 hours; for basal Gli2 concentrations in the primary cilium: without Shh-N; for Basal and Shh-N-induced levels of ciliary Gli2: with or without 10% Shh-N-conditioned medium
Description: Shh-EGFP cells were seeded into 24-well plates containing poly-D-lysine-coated 12-mm glass coverslips at a density of 65,000 cells/well and cultured for 24 hours in DMEM containing 10% calf serum, 100 U/mL penicillin, and 0.1 mg/mL streptomycin. The cells were then transferred into DMEM containing 0.5% calf serum and the antibiotics described above for 16 hours to promote primary cilia formation. The cells were next transferred into DMEM containing 0.5% calf serum, antibiotics, and either individual compounds at a 30 μM concentration or 0.3% DMSO. Each compound or vehicle treatment was conducted in the presence or absence of 10% Shh-N-conditioned medium, and the cells were cultured under these conditions for 4 hours. The cells were subsequently fixed in PBS containing 4% paraformaldehyde for 10 minutes at room temperature, washed 3×5 minutes in PBS containing 50 mM glycine, permeabilized in PBS containing 0.3% Triton X-100 […], and then blocked overnight at 4° C. in PBS containing 5% normal donkey serum, 0.1% Triton X-100, and 0.05% sodium azide. After blocking was complete, the coverslips were incubated in blocking buffer containing rabbit polyclonal anti-Arl13b antibody (1:3000 dilution), goat polyclonal anti-Gli2 antibody (1:50 dilution; R & D Systems, AF3635), and mouse monoclonal anti-γ-tubulin (1:200 dilution; Sigma-Aldrich, T5326) for 90 minutes at room temperature. The cells were then washed 4×5 minutes with PBS containing 0.1% Triton X-100 and incubated in blocking buffer containing DyLight 488-conjugated donkey polyclonal anti-goat IgG antibody (3 μg/mL; Jackson ImmunoResearch, 705-485-147), DyLight 594-conjugated donkey polyclonal […] IgG antibody (3 μg/mL; Jackson ImmunoResearch, 715-515-151), and DyLight 649-conjugated donkey polyclonal […] IgG antibody (3 μg/mL; Jackson ImmunoResearch, 711-495-152) for 60 minutes. Following, this secondary antibody incubation, nuclei were stained by incubating the cells 2×10 minutes with PBS containing 0.1% Triton X-100 and 0.5 μg/mL DAPI and washing them 2×5 minutes with PBS. The coverslips were subsequently mounted onto slides using Prolong Gold Antifade Reagent (Invitrogen) and imaged using a Plan Apochromat 63×/1.4 NA oil immersion objective on a Zeiss Axio1mager Z1 upright microscope equipped with an LSM700 laser scanning confocal head. Ciliary Gli2 levels were quantified by determining total pixel intensity within a 0.69 μm-diameter circle at the distal tip of the axoneme and subtracting background fluorescence in an adjacent region of equivalent size. At least 25 cilia were analyzed to determine the average ciliary Gli2 level for each experimental condition.

T1 sequence (A0A3Q1NEU9 1-4657): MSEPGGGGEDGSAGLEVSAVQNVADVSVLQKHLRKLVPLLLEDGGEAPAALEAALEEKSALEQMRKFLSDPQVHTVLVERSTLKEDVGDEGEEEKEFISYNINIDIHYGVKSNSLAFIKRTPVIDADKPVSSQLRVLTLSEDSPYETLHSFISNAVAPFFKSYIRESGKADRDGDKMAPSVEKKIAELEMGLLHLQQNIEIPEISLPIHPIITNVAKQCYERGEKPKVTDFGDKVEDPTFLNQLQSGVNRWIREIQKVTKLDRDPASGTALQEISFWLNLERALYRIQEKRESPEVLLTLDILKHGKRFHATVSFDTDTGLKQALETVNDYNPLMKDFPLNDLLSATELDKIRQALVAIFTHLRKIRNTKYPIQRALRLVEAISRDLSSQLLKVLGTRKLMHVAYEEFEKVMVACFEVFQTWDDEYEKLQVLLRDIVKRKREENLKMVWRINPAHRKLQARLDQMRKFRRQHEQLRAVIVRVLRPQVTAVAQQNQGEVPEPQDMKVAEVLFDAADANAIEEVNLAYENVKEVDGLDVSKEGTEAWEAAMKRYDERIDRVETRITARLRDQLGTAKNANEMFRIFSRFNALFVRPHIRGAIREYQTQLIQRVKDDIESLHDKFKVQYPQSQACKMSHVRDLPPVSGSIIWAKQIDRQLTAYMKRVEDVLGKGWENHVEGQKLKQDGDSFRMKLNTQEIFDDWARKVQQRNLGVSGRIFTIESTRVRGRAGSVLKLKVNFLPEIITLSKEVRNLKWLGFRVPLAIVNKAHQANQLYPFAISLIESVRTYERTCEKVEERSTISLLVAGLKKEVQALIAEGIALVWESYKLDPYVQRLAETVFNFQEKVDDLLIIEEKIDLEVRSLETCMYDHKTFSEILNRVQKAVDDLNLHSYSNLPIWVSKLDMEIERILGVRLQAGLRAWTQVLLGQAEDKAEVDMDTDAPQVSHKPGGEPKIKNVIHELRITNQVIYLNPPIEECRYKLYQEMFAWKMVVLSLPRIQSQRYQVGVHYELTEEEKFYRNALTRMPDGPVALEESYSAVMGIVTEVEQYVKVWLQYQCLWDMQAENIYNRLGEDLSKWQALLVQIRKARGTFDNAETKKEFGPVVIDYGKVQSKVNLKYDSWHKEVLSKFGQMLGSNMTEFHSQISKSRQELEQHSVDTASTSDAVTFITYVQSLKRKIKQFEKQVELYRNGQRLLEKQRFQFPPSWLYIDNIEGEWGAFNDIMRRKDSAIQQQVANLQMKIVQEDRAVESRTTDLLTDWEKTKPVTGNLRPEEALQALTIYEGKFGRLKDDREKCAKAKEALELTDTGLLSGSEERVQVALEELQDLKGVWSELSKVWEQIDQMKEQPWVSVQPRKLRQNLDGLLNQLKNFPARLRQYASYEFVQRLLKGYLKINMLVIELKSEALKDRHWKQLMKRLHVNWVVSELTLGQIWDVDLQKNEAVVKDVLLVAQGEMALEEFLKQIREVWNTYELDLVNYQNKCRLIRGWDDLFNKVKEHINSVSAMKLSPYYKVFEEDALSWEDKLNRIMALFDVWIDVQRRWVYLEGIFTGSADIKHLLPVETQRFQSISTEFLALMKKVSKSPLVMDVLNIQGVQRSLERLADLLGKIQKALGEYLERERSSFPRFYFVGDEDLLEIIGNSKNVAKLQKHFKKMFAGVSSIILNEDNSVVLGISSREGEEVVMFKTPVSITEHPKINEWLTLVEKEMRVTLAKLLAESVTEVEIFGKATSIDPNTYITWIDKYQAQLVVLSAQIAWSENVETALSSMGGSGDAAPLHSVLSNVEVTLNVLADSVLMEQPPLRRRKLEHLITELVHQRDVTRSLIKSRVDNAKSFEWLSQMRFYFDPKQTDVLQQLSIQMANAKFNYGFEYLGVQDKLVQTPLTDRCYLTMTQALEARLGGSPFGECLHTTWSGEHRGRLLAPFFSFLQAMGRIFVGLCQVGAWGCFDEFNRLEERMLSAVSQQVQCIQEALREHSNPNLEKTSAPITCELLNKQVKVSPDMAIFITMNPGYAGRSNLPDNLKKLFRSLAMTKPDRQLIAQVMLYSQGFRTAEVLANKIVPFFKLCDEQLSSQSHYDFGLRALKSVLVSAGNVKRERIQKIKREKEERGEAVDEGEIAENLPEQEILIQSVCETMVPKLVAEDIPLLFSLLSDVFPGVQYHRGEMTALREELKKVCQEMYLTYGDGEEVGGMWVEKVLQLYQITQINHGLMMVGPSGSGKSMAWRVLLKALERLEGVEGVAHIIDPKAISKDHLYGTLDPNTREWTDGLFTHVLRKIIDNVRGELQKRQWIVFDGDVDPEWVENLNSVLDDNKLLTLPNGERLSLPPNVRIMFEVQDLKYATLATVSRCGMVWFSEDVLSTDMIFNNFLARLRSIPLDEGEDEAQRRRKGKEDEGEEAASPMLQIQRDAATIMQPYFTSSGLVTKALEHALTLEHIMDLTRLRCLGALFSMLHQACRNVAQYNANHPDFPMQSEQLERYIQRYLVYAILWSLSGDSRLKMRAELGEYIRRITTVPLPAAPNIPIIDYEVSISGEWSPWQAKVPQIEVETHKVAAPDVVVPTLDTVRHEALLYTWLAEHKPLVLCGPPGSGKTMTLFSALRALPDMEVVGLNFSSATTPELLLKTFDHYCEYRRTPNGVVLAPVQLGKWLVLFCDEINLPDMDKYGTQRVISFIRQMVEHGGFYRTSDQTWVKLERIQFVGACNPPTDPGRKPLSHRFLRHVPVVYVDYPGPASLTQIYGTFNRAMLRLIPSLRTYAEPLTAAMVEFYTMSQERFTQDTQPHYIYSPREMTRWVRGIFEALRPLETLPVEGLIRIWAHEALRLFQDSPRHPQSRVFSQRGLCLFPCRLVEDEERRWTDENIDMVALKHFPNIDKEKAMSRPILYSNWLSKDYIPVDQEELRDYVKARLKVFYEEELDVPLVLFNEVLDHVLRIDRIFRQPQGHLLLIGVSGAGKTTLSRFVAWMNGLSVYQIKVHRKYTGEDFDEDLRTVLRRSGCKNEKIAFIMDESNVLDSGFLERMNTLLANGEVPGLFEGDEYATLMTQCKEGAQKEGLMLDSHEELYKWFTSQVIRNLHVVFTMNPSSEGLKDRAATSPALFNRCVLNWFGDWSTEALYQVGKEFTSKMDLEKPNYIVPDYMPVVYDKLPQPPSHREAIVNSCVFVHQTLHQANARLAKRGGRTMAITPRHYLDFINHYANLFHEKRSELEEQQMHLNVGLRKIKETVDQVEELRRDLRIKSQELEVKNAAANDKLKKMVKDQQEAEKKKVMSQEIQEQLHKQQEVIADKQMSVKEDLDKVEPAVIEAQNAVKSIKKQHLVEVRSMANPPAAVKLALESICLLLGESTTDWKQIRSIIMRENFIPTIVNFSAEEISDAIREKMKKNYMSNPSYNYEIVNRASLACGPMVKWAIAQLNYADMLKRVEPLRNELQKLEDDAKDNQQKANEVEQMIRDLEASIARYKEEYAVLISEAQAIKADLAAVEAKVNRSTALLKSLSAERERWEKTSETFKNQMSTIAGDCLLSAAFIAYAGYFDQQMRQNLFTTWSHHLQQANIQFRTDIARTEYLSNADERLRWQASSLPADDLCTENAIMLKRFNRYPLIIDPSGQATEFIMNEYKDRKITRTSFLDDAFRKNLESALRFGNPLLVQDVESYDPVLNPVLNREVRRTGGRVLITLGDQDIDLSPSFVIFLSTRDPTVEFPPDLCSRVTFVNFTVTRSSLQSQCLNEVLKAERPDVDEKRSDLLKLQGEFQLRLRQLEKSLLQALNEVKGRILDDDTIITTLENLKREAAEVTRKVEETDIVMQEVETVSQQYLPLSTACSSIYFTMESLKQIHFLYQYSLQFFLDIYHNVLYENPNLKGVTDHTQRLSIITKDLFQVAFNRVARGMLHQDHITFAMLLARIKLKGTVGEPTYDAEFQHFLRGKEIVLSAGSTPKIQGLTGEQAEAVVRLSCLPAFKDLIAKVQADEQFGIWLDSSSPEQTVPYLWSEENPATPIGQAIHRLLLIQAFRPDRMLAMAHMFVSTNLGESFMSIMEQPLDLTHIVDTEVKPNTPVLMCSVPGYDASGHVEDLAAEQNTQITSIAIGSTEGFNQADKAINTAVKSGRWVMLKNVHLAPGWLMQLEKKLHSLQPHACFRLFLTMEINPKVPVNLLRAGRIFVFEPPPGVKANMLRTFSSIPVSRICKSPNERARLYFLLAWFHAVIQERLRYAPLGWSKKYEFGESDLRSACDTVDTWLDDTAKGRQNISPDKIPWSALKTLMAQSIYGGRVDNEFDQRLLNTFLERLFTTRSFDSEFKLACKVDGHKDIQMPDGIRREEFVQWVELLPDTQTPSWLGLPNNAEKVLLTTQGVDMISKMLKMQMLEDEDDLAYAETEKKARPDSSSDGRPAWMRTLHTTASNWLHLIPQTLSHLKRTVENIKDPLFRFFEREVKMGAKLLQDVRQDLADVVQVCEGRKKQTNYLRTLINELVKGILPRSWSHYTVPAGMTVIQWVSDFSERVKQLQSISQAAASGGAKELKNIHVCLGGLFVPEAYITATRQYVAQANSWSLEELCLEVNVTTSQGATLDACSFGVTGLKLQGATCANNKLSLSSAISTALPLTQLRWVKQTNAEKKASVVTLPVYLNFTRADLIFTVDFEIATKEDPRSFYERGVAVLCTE

dynein-dependent microtubule movement (gliding velocity) [1]	pIC50 [1]	Structure (SMILES)	basal Gli2 concentrations in the primary cilium [2]	Basal and Shh-N-induced levels of ciliary Gli2 [2]
at least five-fold	4.52	N#C/C(C(=O)c1ccc(Cl)cc1Cl)=C1\NC(=O)c2ccccc2N1 [Example 1, 3-(2,4-dichlorophenyl)-3-oxo-2-(4-oxo-3,4-dihydroquinazolin-2(1H)-ylidene)propanenitrile]	increased basal Gli2 concentrations in this signaling organelle to levels comparable to that induced by Shh-N	–
minimal effects	–	N#C/C(C(=O)c1ccc(Cl)cc1)=C1\NC(=O)c2ccccc2N1 [Example 2, 3-(4-chlorophenyl)-3-oxo-2-(4-oxo-3,4-dihydroquinazolin-2(1H)-ylidene)propanenitrile]	–	unchanged
minimal effects	–	N#C/C(C(=O)c1ccccc1)=C1\NC(=O)c2ccccc2N1 [Example 16, 3-oxo-2-(4-oxo-3,4-dihydroquinazolin-2(1H)-ylidene)-3-phenylpropanenitrile]	–	unchanged
at least five-fold	4.40	N#C/C(C(=O)c1ccc(Cl)cc1Cl)=C1\NC(=O)c2ccc(Cl)cc2N1 [Example 31, 2-(7-chloro-4-oxo-3,4-dihydroquinazolin-2(1H)-ylidene)-3-(2,4-dichlorophenyl)-3-oxo-propanenitrile]	increased basal Gli2 concentrations in this signaling organelle to levels comparable to that induced by Shh-N	–

From patent US9145376B2, “Quinazolinone inhibitors of dynein” (The Rockefeller University, priority 2011, dated 2015)
